In patent publication US20150362482A1 (priority 2013, published 2015):

Tests used:
Type in all cases: cell-based, mouse
networked ESN cultures = tested on: networked ESN cultures
ESNs = tested on: ESNs
iGluR = tested on: iGluR
GABARA = tested on: GABARA

Question: For `NCCCC(=O)O` [GABA], which “effect on spontaneous network activity” value (networked ESN cultures) is on record?
Answer: silenced spontaneous network activity

Question: How did the excitatory post-synaptic currents (ESNs) turn out when `NC1=N[C@H](O)[C@H]2[C@H]3O[C@]4(O)O[C@@H]([C@@H](O)[C@@]2(N1)[C@@H]4O)[C@]3(O)CO` [TTX, tetrodotoxin] was run?
Answer: blocked

Question: With `N[C@@H](CCC(=O)O)C(=O)O` [glutamate] as the compound, how does the agonist-induced current (iGluR) read?
Answer: multiphasic inward current

Question: `NCc1cc(=O)[nH]o1` [muscimol] was tested. Which agonist-induced current (GABARA) did it give?
Answer: large desensitizing Cl-current

Question: Which “network behaviour in simultaneous dual intracellular recordings” value (networked ESN cultures) does the source give for `Nc1ccncc1N` [3,4-DAP, 3,4-diaminopyridine] here?
Answer: rapid transition to a synchronized bursting behavior
